Data as given in ChEMBL document CHEMBL2424579, “Quinazolin-4-one derivatives as selective histone deacetylase-6 inhibitors for the treatment of Alzheimer's disease” (J Med Chem, 2013).
Calls of active or inactive are those of the source. No cut-off for these calls is given here.

Legend:
PC-12 [1] = experiment: Induction iof GAP-43 protein expression in rat PC12 cells after 48 hrs by Western blotting analysis; type: functional, cell-based
SH-SY5Y [2] = experiment: Induction of neurite outgrowth in human SH-SY5Y cells at 10 uM after 5 days; type: functional, cell-based
PC-12 [3] = experiment: Inhibition of HDAC6 in rat PC12 cells assessed as induction of alpha-tubulin acetylation at 10 uM after 48 hrs by Western blotting analysis; type: cell-based
PC-12 [4] = experiment: Inhibition of HDAC6 in rat PC12 cells assessed as acetylation of histone H3 at 10 uM after 48 hrs by Western blotting analysis; type: cell-based
PC-12 [5] = experiment: Induction of neurite outgrowth in rat PC12 cells at 10 uM after 5 days; type: functional, cell-based
[6] = Cytotoxicity against human SH-SY5Y cells at 25 uM; type: cell-based
Mus musculus [7] = experiment: Antialzheimer activity in wild type learning-impaired Balb/c mouse model with hippocampal lesions assessed as increase in acetylated alpha-tubulin level in hippocampus region at 10 mg/kg, ip administered for 30 days by rotarod test
Histone deacetylase 11 = molecular target: T1, Histone deacetylase 11 (Homo sapiens, UniProt Q96DB2); experiment: Inhibition of human recombinant HDAC11 expressed in baculovirus/sf9 cells using RHKKAc as substrate
T1 sequence (Q96DB2 whole entry): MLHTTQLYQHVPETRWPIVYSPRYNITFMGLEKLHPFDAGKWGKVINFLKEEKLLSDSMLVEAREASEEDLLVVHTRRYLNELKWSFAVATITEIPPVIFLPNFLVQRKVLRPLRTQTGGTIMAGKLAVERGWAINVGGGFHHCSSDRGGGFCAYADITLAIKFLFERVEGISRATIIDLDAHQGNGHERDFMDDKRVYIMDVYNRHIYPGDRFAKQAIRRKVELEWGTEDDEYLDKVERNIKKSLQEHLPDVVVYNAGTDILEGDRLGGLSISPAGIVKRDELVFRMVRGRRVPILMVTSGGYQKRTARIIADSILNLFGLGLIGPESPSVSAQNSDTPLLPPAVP

[8] = molecular target: T2, Protein deacetylase HDAC6 (Homo sapiens, UniProt Q9UBN7); experiment: Inhibition of human recombinant HDAC6 expressed in baculovirus/sf9 cells using RHKKAc as substrate
T2 sequence (Q9UBN7 whole entry): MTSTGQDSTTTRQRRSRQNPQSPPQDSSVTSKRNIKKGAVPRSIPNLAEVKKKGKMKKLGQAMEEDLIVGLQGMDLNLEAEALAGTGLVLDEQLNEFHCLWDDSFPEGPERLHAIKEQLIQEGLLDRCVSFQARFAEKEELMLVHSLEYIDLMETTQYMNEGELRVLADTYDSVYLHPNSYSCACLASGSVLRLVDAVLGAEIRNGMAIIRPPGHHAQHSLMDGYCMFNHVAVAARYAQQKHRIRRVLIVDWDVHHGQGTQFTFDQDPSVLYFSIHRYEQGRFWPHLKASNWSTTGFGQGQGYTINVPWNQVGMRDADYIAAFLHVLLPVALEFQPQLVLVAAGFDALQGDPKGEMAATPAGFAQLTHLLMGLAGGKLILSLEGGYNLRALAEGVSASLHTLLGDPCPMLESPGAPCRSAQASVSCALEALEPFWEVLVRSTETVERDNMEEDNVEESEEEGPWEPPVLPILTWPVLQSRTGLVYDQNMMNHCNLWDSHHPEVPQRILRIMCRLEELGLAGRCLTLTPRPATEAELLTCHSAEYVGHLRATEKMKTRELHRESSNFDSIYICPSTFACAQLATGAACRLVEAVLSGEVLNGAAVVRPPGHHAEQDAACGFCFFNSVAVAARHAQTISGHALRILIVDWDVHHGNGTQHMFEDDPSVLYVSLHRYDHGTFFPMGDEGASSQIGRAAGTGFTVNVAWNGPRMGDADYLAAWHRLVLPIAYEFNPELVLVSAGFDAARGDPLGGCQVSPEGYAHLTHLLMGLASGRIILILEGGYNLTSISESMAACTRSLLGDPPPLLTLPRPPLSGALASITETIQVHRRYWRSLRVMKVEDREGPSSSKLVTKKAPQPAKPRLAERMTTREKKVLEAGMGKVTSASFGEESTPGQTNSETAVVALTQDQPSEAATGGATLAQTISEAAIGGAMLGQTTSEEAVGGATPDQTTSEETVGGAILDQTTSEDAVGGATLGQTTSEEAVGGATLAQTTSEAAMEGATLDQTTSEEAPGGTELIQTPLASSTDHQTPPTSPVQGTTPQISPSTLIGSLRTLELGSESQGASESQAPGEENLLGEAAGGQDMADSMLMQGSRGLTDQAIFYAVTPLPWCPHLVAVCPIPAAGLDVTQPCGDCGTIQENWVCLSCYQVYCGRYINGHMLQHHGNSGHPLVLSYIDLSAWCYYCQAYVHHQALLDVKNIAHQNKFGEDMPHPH

[9] = molecular target: T3, Polyamine deacetylase HDAC10 (Homo sapiens, UniProt Q969S8); experiment: Inhibition of human recombinant HDAC10 expressed in baculovirus/sf9 cells using RHKKAc as substrate
T3 sequence (Q969S8 whole entry): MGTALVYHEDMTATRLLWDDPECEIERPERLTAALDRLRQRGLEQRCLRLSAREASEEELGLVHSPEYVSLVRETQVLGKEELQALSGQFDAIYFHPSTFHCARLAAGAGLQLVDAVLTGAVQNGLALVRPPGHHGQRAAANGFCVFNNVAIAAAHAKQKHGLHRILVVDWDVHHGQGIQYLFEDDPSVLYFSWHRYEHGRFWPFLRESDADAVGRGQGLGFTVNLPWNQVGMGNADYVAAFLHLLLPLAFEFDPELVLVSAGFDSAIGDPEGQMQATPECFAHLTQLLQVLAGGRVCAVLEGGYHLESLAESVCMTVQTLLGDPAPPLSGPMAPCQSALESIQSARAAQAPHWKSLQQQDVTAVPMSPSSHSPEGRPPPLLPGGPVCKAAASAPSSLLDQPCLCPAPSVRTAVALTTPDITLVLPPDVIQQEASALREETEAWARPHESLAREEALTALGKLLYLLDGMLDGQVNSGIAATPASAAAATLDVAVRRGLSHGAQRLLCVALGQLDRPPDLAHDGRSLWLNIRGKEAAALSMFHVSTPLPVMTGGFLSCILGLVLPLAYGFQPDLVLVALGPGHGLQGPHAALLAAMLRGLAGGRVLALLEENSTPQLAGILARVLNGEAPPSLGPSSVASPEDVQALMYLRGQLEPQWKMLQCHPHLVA

Histone deacetylase 2 = Histone deacetylase 2 (Homo sapiens, UniProt Q92769); experiment: Inhibition of human recombinant HDAC2 expressed in baculovirus/sf9 cells using RHKKAc as substrate
Chain of Histone deacetylase 2 (Q92769 whole entry): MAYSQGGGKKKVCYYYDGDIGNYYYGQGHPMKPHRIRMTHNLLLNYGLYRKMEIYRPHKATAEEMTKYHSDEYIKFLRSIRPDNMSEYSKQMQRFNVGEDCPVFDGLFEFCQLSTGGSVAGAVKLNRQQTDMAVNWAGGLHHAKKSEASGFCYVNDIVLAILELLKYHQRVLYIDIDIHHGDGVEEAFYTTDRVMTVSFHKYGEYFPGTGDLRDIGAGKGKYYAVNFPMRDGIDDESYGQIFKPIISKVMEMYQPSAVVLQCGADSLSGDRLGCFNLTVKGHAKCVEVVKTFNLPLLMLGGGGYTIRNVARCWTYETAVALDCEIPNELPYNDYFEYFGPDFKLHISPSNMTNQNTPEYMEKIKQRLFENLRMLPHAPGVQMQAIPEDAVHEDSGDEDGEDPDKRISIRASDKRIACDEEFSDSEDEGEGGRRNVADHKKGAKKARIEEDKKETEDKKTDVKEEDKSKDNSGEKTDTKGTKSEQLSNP

Mus musculus [10] = experiment: Antialzheimer activity in wild type learning-impaired Balb/c mouse model with hippocampal lesions at 10 mg/kg, ip administered for 30 days by rotarod test relative to vehicle-treated control; settings: Hippocampus, TDE = time-dependent effect
[11] = molecular target: Poly [ADP-ribose] polymerase 1 (Homo sapiens) (UniProt P09874); experiment: Inhibition of PARP1 (unknown origin) up to 25 uM
Chain of Poly [ADP-ribose] polymerase 1 (Homo sapiens) (P09874 whole entry): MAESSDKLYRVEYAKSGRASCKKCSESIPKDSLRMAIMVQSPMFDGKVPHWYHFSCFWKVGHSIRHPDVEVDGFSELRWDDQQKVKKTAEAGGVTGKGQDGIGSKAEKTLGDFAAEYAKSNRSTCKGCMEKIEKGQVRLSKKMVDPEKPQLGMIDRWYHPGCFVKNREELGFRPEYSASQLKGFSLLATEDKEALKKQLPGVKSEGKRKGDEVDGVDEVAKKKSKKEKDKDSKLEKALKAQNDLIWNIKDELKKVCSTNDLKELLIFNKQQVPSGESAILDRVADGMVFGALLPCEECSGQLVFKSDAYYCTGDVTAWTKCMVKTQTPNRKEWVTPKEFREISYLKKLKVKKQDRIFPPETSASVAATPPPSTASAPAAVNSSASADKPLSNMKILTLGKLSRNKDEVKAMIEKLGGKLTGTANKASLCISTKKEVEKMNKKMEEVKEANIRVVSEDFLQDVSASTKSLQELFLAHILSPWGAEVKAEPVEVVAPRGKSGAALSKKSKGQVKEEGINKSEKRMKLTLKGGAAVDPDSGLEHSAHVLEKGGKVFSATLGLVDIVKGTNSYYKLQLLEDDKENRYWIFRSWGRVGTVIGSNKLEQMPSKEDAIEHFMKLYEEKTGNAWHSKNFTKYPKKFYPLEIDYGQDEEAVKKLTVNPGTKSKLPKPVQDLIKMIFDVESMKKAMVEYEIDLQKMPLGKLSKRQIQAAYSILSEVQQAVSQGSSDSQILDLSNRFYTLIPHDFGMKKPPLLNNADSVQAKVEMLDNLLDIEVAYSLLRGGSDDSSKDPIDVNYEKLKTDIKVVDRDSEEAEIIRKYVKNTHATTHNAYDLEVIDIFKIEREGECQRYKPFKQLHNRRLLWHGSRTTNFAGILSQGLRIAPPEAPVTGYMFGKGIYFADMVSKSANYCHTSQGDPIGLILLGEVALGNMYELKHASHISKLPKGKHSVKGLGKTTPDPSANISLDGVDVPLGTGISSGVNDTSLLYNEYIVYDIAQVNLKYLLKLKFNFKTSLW

PC-12 [12] = experiment: Inhibition of HDAC6 in rat PC12 cells assessed as induction of alpha-tubulin acetylation after 48 hrs by Western blotting analysis; type: cell-based
PC-12 [13] = experiment: Cytotoxicity against rat PC12 cells at 25 uM; type: cell-based; settings: pc-12, 25 µM
Vero = experiment: Cytotoxicity against african green monkey Vero cells at 25 uM; type: cell-based; settings: chlorocebus sabaeus
Histone deacetylase 8 = molecular target: T4, Histone deacetylase 8 (Homo sapiens, UniProt Q9BY41); experiment: Inhibition of human recombinant HDAC8 expressed in baculovirus/sf9 cells using RHKAcKAc as substrate
T4 sequence (Q9BY41 whole entry): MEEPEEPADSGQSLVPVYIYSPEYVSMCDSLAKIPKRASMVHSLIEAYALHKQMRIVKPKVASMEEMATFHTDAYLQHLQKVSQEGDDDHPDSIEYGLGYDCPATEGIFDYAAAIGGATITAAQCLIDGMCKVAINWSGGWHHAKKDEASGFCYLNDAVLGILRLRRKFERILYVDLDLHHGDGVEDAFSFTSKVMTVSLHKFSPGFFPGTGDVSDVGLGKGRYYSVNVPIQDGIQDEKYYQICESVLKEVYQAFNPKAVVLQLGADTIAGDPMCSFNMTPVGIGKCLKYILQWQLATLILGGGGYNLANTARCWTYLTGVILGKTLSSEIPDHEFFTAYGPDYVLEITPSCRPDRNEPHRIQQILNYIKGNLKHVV

PC-12 [14] = experiment: Induction iof GAP-43 protein expression in rat PC12 cells at 0.1 uM after 48 hrs by Western blotting analysis; type: functional, cell-based
PC-12 [15] = experiment: Induction of neurite outgrowth in rat PC12 cells after 5 days; type: functional, cell-based; settings: PC-12, 120 h
SH-SY5Y [16] = experiment: Increase of synaptic activity in human SH-SY5Y cells after 5 days by fluorescence assay; type: functional, cell-based; settings: 120 h
SH-SY5Y [17] = experiment: Induction of neurite outgrowth in human SH-SY5Y cells after 5 days; type: functional, cell-based; settings: 120 h
Histone deacetylase 1 = Histone deacetylase 1 (Homo sapiens, UniProt Q13547); experiment: Inhibition of human recombinant HDAC1 expressed in baculovirus/sf9 cells using RHKKAc as substrate
Chain of Histone deacetylase 1 (Q13547 whole entry): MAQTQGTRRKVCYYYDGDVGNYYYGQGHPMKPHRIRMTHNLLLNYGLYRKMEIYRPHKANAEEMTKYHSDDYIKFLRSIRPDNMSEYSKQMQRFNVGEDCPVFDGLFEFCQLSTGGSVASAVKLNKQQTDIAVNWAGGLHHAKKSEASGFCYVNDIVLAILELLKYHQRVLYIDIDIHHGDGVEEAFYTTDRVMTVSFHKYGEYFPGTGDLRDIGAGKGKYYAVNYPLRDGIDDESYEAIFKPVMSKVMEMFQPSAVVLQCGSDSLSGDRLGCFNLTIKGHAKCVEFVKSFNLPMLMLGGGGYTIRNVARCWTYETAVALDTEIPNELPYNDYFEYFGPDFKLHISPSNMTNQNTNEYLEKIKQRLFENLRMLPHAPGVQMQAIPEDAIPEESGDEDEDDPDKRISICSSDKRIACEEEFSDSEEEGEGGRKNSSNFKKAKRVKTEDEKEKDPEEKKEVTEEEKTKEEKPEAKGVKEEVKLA

PC-12 [18] = experiment: Increase of synaptic activity in rat PC12 cells after 5 days by fluorescence assay; type: functional, cell-based; settings: PC-12, 120 h
Cytochrome P450 2C19 = Cytochrome P450 2C19 (Homo sapiens, UniProt P33261); experiment: Inhibition of CYP2C19 (unknown origin) using 3-cyano-7-ethoxycoumarin as substrate; type: ADME
Chain of Cytochrome P450 2C19 (P33261 whole entry): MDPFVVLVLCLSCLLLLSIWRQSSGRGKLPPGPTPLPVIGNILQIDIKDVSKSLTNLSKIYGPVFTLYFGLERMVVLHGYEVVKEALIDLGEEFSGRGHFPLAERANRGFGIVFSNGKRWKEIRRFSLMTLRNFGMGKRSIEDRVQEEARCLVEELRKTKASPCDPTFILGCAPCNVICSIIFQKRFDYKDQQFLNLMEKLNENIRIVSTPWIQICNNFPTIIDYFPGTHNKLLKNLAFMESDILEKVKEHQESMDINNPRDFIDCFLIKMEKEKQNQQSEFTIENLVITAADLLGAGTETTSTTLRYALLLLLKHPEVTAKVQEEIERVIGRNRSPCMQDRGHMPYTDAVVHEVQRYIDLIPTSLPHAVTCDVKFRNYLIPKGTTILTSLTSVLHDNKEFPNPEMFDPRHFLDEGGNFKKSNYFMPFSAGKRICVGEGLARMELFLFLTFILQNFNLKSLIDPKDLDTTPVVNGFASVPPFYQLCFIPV

Cytochrome P450 2D6 = Cytochrome P450 2D6 (Homo sapiens, UniProt P10635); experiment: Inhibition of CYP2D6 (unknown origin) using 3-cyano-7-ethoxycoumarin as substrate; type: ADME
Chain of Cytochrome P450 2D6 (P10635 whole entry): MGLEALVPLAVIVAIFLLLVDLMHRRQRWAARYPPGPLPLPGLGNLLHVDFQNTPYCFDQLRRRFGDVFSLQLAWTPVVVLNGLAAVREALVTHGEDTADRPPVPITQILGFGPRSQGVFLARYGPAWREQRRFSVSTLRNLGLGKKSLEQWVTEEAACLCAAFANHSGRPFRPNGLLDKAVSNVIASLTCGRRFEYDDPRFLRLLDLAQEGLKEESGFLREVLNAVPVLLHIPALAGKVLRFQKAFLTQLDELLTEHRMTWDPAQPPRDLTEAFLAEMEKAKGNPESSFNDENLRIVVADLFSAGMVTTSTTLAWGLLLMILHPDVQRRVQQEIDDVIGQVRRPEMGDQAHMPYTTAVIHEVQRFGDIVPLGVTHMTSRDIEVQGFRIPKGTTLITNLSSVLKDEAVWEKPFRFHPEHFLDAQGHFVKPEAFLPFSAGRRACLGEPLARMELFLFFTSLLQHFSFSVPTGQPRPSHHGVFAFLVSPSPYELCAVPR

Cytochrome P450 3A4 = Cytochrome P450 3A4 (Homo sapiens, UniProt P08684); experiment: Inhibition of CYP3A4 (unknown origin) using Vivid BOMR as substrate; type: ADME
Chain of Cytochrome P450 3A4 (P08684 whole entry): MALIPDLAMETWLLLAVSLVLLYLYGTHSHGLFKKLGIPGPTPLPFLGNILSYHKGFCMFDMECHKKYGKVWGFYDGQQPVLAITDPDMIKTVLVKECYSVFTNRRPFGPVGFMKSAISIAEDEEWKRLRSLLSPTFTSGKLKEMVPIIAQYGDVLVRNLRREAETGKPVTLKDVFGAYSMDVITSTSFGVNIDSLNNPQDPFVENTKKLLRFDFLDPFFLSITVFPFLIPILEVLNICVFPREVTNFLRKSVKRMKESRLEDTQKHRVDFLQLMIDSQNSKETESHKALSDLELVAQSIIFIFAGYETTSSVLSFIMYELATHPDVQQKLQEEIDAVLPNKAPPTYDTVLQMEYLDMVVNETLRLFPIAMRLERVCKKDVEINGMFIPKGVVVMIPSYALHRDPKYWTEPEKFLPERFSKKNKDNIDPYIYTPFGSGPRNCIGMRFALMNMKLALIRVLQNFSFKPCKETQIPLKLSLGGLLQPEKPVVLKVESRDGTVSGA

Cytochrome P450 1A2 = Cytochrome P450 1A2 (Homo sapiens, UniProt P05177); experiment: Inhibition of CYP1A2 (unknown origin) using 3-cyano-7-ethoxycoumarin as substrate; type: ADME
Chain of Cytochrome P450 1A2 (P05177 whole entry): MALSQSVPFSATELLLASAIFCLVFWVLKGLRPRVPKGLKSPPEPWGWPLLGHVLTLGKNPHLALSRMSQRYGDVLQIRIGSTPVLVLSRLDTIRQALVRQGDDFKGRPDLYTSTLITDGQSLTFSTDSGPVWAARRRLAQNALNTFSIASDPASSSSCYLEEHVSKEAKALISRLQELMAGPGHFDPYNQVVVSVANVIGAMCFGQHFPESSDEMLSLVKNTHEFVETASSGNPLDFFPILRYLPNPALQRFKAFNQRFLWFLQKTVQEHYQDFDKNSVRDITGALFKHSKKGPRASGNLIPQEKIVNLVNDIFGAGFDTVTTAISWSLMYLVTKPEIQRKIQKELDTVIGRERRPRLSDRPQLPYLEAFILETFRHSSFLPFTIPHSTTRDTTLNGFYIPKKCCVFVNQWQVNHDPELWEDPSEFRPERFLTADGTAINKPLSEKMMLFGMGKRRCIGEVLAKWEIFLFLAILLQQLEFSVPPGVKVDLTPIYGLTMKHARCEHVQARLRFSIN

Cytochrome P450 2C9 = Cytochrome P450 2C9 (Homo sapiens, UniProt P11712); experiment: Inhibition of CYP2C9 (unknown origin) using Vivid OOMR as substrate; type: ADME
Chain of Cytochrome P450 2C9 (P11712 whole entry): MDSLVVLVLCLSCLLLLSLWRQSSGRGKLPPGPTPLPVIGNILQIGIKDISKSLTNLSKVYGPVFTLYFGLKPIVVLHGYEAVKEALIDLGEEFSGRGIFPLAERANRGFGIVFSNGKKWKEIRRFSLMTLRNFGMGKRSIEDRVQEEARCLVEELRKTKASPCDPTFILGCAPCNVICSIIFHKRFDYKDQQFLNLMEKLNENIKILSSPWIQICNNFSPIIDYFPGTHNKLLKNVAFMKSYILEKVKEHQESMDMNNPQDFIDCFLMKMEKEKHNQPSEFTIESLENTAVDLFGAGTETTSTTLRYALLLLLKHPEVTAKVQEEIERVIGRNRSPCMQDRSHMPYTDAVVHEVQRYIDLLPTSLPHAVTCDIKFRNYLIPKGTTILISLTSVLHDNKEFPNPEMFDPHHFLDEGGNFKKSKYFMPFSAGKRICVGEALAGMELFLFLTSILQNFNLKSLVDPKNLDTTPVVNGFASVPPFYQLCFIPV

Compound: CC(/C=C/C(=O)NO)=C\[C@@H](C)C(=O)c1ccc(N(C)C)cc1
- Activity (PC-12 [1]): Dose-dependent effect
- Activity (SH-SY5Y [2]): Active
- inhibition (PC-12 [3]): Active
- inhibition (PC-12 [4]): Active
- Activity (PC-12 [5]): Active

Compound: Cc1nc2cc(/C=C/C(=O)NO)ccc2c(=O)n1-c1ccccc1
- Activity [6]: Non-toxic
- Activity (PC-12 [1]): Dose-dependent effect
- Activity (SH-SY5Y [2]): Active
- Activity (Mus musculus [7]): Active
- IC50 (Histone deacetylase 11): 1.35 µM
- IC50 [8]: 0.088 µM
- IC50 [9]: 17.5 µM
- IC50 (Histone deacetylase 2): 1.61 µM
- Activity (Mus musculus [10]): tde
- inhibition [11]: inactive
- inhibition (PC-12 [12]): Dose-dependent effect
- Activity (PC-12 [13]): Non-toxic
- Activity (Vero): Non-toxic
- IC50 (Histone deacetylase 8): 3.88 µM
- Activity (PC-12 [5]): Active
- Activity (PC-12 [14]): Active

Compound: CCc1nc2cc(Cc3ccc(C(=O)NO)cc3)ccc2c(=O)n1CCc1ccccc1
- Activity [6]: Non-toxic
- EC50 (PC-12 [15]): 9.3 µM
- Activity (PC-12 [1]): Dose-dependent effect
- Activity (SH-SY5Y [2]): Active
- EC50 (SH-SY5Y [16]): 5.5 µM
- EC50 (SH-SY5Y [17]): 9.8 µM
- IC50 (Histone deacetylase 11): 1.32 µM
- IC50 [8]: 0.009 µM
- IC50 (Histone deacetylase 1): 4.85 µM
- inhibition [11]: inactive
- inhibition (PC-12 [3]): Active
- Activity (PC-12 [13]): Non-toxic
- Activity (Vero): Non-toxic
- inhibition (PC-12 [4]): Active
- IC50 (Histone deacetylase 8): 0.173 µM
- EC50 (PC-12 [18]): 3.6 µM
- Activity (PC-12 [5]): Active

Compound: CCc1nc2c(Cc3ccc(C(=O)NO)cc3)cccc2c(=O)n1CCc1ccccc1
- Activity [6]: Non-toxic
- IC50 (Cytochrome P450 2C19): 3.3 µM
- EC50 (PC-12 [15]): 6.2 µM
- IC50 (Cytochrome P450 2D6): > 10 µM
- Activity (PC-12 [1]): Dose-dependent effect
- Activity (SH-SY5Y [2]): Active
- EC50 (SH-SY5Y [16]): 8.3 µM
- EC50 (SH-SY5Y [17]): 8.1 µM
- IC50 (Histone deacetylase 11): 37.1 µM
- IC50 [8]: 0.079 µM
- IC50 (Histone deacetylase 2): > 10 µM
- inhibition [11]: inactive
- inhibition (PC-12 [12]): Dose-dependent effect
- IC50 (Cytochrome P450 3A4): 0.1 µM
- Activity (PC-12 [13]): Non-toxic
- IC50 (Cytochrome P450 1A2): > 10 µM
- Activity (Vero): Non-toxic
- IC50 (Histone deacetylase 8): 0.282 µM
- EC50 (PC-12 [18]): 6.7 µM
- Activity (PC-12 [5]): Active
- IC50 (Cytochrome P450 2C9): 2.1 µM

Compound: CCc1nc2cc(F)c(/C=C/C(=O)NO)cc2c(=O)n1CCc1ccccc1
- Activity [6]: Non-toxic
- EC50 (PC-12 [15]): 7.2 µM
- Activity (PC-12 [1]): Dose-dependent effect
- Activity (SH-SY5Y [2]): Active
- EC50 (SH-SY5Y [16]): 4.3 µM
- EC50 (SH-SY5Y [17]): 8.6 µM
- IC50 (Histone deacetylase 11): 4.68 µM
- IC50 [8]: 0.008 µM
- IC50 (Histone deacetylase 1): 1.94 µM
- IC50 (Histone deacetylase 2): 5.68 µM
- inhibition [11]: inactive
- inhibition (PC-12 [12]): Dose-dependent effect
- Activity (PC-12 [13]): Non-toxic
- Activity (Vero): Non-toxic
- IC50 (Histone deacetylase 8): 0.766 µM
- EC50 (PC-12 [18]): 3.3 µM
- Activity (PC-12 [5]): Active
- Activity (PC-12 [14]): Active
